Target: BRCT(BRCA1) (Homo sapiens, UniProt P38398)
Test: fluorescence polarization competition
Type: binding
Excerpt: fluorescence polarization competition on BRCT(BRCA1)

Chain of BRCT(BRCA1) (P38398 1646-1859): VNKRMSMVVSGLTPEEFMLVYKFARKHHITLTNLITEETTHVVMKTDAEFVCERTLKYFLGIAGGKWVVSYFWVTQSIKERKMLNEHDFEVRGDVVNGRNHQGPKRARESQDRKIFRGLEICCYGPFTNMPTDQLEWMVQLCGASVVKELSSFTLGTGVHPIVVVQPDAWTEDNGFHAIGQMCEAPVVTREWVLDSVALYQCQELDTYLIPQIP

CC(=O)N[C@@H](COP(=O)(O)O)C(=O)Nc1cccc(CC(=O)N[C@@H](Cc2ccccc2)C(=O)O)c1 [N1]
IC50: > 250 µM

— PMC4999267, “Characterization of Promiscuous Binding of Phosphor Ligands to Breast-Cancer-Gene 1 (BRCA1) C-Terminal (BRCT): Molecular Dynamics, Free Energy, Entropy and Inhibitor Design” (PLoS Computational Biology, 2016)
